IC50 and EC50 data for 27 molecules are collected here from ChEMBL document CHEMBL1201862, “PubChem BioAssay data set” (2004).

The structures appear in SMILES notation. Calls of active or inactive are those of the source.

In experiment [1] the target is T1, Polyadenylate-binding protein 1 (Homo sapiens, UniProt P11940). Nature of the experiment: MLLE binding blockers, Cy5 peptide tracer – biochemical, fluorescence polarization, Cy5-PAM2 peptide, secondary, miRNA deadenylation inhibitor project, dose response (AID 602260). Format: functional. The note with it: read-out: IC50_Mean. A general note: Polarisation of emitted light reports the rotation of a fluorescent probe.

Experiment [2] has as its target T1, Polyadenylate-binding protein 1. In words: MLLE domain peptide-binding blockers, IC50 – biochemical, fluorescence polarization, FITC-PAM2 peptide, dose response (AID 602259). In kind it is functional. The note with it: read-out: IC50_Mean.
A further experiment concerns H9c2. Nature of the experiment: cells. In kind it is functional, cell-based. The note with it: Rattus norvegicus, H9c2, Myocardium.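 Further: confirmatory concentration-response retest of ultra-high-throughput screening hits for modulation of myocardial damage; cell death induced by hydrogen peroxide oxidative stress; compound pretreatment for 60 min then peroxide exposure for 2 h; potency is for protecting the cells against peroxide damage rather than for killing them.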
Experiment [3] concerns the target T2, Corticotropin-releasing factor receptor 2/Corticotropin-releasing factor-binding protein (Homo sapiens, UniProt P24387+Q13324).
T2 sequence (Q13324 whole entry): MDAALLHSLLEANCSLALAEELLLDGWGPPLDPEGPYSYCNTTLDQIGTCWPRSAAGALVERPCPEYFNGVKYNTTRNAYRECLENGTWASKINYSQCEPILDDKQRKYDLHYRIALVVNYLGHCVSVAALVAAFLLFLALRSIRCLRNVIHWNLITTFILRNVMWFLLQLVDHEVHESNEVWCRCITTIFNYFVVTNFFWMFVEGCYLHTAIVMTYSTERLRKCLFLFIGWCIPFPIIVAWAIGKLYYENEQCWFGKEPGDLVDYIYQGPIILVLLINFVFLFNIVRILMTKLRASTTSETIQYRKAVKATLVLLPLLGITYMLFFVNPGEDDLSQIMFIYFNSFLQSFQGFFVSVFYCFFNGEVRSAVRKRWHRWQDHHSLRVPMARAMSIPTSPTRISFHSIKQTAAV
T2 sequence (P24387 whole entry): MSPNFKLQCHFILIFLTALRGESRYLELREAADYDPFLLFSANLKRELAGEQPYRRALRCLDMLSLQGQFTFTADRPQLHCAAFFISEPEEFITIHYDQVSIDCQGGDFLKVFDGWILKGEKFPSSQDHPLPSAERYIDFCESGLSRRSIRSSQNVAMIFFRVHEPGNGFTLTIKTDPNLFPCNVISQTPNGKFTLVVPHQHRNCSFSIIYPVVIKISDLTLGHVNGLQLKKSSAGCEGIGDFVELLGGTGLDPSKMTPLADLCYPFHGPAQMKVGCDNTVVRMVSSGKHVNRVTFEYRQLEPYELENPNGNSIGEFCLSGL
In words: activators of CRF receptor 2 with binding protein – uHTS hits, confirmation (AID 602473). Format: functional. The note with it: read-out: EC50_Mean.

The target of experiment [4] is T3, Heat shock factor protein 1 (Mus musculus, UniProt P38532).
T3 sequence (P38532 whole entry): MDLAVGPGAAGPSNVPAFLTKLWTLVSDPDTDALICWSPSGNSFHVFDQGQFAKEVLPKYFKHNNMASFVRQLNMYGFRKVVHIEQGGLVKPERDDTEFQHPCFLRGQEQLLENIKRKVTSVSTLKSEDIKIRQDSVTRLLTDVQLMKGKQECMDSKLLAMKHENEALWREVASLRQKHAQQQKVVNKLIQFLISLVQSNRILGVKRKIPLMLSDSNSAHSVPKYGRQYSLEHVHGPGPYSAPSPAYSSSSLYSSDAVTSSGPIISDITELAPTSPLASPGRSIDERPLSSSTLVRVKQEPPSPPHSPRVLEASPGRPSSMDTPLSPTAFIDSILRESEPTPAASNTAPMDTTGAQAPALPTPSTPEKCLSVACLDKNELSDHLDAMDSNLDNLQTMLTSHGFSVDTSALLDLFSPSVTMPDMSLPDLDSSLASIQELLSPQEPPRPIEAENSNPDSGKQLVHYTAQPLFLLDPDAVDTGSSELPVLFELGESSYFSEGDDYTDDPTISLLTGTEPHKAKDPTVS
In words: decrease of HSF1-responsive luciferase luminescence – cell-based, NIH3T3, dose retest, confirmation (AID 2382).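 Further: NIH3T3 fibroblasts with HSF1-driven luciferase reporter stressed by proteasome inhibitor MG132; luminescence from HSF1-driven luciferase expression after 8 hours of MG132 stress.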 In kind it is functional.

For experiment [5], the target named is T4, RNA-binding protein pos-1 (Caenorhabditis elegans, UniProt G5EF15).
T4 sequence (G5EF15 whole entry): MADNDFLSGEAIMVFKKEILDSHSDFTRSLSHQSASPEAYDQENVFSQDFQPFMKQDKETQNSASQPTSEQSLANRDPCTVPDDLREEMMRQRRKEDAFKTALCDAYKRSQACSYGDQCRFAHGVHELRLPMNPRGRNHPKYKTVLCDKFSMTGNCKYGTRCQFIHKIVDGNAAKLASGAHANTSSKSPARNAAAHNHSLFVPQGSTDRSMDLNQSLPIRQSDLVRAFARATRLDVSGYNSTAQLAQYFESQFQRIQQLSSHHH
In words: disruptors of C. elegans POS-1 RNA interaction – biochemical, fluorescence polarization, dose response (AID 1964).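 Further: purified POS-1 fused to maltose binding protein made in E. coli; potency of compounds blocking POS-1 binding to fluorescent RNA.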

Experiment [6] has as its target T5, Zinc finger protein mex-5 (Caenorhabditis elegans, UniProt Q9XUB2).
T5 sequence (Q9XUB2 whole entry): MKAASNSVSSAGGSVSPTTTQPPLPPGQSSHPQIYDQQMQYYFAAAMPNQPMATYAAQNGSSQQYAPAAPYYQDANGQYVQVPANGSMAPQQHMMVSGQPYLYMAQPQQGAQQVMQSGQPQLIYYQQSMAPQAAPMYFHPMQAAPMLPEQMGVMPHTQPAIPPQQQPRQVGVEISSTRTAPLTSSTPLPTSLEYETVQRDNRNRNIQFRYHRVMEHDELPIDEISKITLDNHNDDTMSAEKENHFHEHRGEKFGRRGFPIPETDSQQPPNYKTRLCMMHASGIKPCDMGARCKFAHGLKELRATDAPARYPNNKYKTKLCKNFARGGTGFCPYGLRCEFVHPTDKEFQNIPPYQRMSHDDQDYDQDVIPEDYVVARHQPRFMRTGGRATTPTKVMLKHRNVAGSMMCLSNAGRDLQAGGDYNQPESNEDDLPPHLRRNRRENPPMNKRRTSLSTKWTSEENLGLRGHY
In words: potency of MEX-5 RNA-binding blockers – biochemical, C. elegans, fluorescence polarization, dose response (AID 1960).

Experiment [7] is described as follows: NIH-3T3 fibroblast cytotoxicity, dose response, cytotoxicity control, cell-based, fluorescence, Alamar Blue, secondary assay (AID 2327).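 Further: NIH-3T3 mouse fibroblasts cultured with fluconazole at 8 µg/mL.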 In kind it is functional.
A short description of experiment [8]: fluconazole-exposed Candida albicans growth modulators – fluorescence, retest, confirmation (AID 2467). Format: functional, cell-based.
The target in the next experiment is T6, Protein skinhead-1 (Caenorhabditis elegans, UniProt P34707).
T6 sequence (P34707 whole entry): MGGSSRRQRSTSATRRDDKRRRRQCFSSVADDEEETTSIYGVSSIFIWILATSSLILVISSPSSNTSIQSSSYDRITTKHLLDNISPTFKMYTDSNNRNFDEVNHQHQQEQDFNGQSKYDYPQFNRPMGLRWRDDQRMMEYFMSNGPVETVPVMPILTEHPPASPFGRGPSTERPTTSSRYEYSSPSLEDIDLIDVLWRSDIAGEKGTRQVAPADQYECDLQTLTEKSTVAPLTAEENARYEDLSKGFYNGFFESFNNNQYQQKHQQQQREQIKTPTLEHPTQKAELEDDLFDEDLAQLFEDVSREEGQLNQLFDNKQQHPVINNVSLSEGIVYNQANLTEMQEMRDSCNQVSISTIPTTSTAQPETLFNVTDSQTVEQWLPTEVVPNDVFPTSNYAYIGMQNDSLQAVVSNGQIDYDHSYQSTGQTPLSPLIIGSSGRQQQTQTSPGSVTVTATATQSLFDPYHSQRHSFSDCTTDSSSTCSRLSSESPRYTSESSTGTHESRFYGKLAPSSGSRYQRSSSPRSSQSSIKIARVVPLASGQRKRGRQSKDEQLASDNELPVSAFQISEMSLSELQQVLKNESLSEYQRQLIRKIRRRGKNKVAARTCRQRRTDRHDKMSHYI
In kind it is functional.

Experiment [9] deals with T3, Heat shock factor protein 1. In words: enhancement of HSF1-driven luciferase signal – cell-based, NIH3T3, luminescence, dose retest, confirmation (AID 435004).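 Further: stress induced by proteasome inhibitor MG132 added 30 min after compound; luciferase reporter driven by HSF1 response element in NIH3T3 cells; actives raise luminescence as potentiators of the MG132 stress response.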 In kind it is functional.
The target in experiment [10] is T7, Rac GTPase-activating protein 1 (Homo sapiens, UniProt Q9H0H5).
T7 sequence (Q9H0H5 whole entry): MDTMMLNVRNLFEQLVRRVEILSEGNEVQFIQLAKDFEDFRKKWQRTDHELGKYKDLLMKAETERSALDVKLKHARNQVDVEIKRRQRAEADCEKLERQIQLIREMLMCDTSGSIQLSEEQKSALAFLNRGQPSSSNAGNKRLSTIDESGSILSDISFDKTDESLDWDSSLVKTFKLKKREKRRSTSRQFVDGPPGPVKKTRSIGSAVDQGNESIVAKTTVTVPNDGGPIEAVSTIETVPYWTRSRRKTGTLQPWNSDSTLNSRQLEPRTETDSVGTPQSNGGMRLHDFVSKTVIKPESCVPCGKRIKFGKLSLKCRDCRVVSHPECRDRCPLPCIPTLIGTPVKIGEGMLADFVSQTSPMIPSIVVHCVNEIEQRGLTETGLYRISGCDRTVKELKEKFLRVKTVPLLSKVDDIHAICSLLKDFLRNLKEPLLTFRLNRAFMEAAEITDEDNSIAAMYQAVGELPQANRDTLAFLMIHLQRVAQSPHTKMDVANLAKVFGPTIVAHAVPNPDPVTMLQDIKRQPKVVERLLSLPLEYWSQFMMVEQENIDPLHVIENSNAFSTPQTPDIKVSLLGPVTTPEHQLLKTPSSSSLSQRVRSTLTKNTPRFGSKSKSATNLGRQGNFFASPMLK
In words: blockers of MgcRacGAP-driven Rac1 GTP hydrolysis – biochemical, ADP Hunter fluorescence, primary and confirmatory, confirmation (AID 624330). Format: functional.

T1 sequence (P11940 whole entry): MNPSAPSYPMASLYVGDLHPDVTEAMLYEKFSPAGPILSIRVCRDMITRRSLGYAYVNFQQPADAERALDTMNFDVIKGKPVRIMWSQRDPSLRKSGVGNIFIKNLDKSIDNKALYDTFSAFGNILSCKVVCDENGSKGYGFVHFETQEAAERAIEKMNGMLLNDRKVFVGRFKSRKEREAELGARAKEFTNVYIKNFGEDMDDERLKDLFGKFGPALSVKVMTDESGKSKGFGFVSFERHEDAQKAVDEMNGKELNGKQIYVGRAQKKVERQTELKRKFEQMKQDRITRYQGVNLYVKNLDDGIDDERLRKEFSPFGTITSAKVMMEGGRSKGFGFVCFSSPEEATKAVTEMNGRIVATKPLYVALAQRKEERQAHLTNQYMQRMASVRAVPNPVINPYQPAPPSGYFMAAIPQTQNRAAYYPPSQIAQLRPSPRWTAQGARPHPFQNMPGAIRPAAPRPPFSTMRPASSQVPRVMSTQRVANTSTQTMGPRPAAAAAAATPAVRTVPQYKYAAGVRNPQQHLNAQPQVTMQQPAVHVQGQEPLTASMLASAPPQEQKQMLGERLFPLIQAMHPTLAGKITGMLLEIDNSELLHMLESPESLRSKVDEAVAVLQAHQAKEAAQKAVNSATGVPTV

In the case of `CCCCN(C(=S)NC(=O)c1ccccc1)c1c(N)n(Cc2ccccc2)c(=O)[nH]c1=O`, the IC50 in experiment [1] and in experiment [2] was > 66 µM (inactive) each time. On to `O=C(O)c1ccc(Cl)c(NC(=S)NC(=O)c2ccccc2[N+](=O)[O-])c1`, for which the IC50 in experiment [1] and in experiment [2] was > 66 µM (inactive) each time.

For the molecule `O=C(N/N=C/c1ccccn1)c1cc(-c2cccc3ccccc23)[nH]n1`, in the experiment on H9c2, the IC50 was > 79 µM (inactive). Regarding `NS(=O)(=O)c1ccc(NC(S)=Nc2ccc(S(=O)(=O)N3CCCC3)cc2)cc1`, the IC50 in experiment [1] and in experiment [2] was > 66 µM (inactive) throughout. Take `CCOC(=O)c1nc(Nc2ccc(C(=O)OC)cc2)c2ccccc2n1`: in the experiment with H9c2, the IC50 is > 79 µM (inactive). Take `O=C(NCc1ccco1)C1CC(c2ccccc2O)=NO1` (centres undefined): the EC50 in [3] is > 53 µM (inactive). On to `Cc1ccc(-c2nc3cnccn3c2Nc2c(C)cccc2C)o1`, for which the EC50 in experiment [4] is > 195 µM (not active). Besides, the IC50 in experiment [1] and in experiment [2] was > 66 µM (inactive) throughout. `CCCNC(=O)c1ccc2c(O)c(O)c(-c3ccc(F)cc3)nc2c1`: in the experiment on H9c2, the IC50 was 14.1 µM (active). In addition, the EC50 in experiment [5] is 7.74 µM (inconclusive); in experiment [6], 4.47 µM (inconclusive); in [7] it was > 150 µM (inactive); in [8] it was > 38 µM (not active). For the molecule `O=C(CSc1nc2ccccc2o1)NCc1nnc(O)c2ccccc12`, the IC50 in the experiment with H9c2 was 8.34 µM (active). On to `Cc1ccc(Cl)cc1N1C(=O)CC(Sc2ncccn2)C1=O` (centres undefined), for which the IC50 in experiment [1] and in experiment [2] was > 66 µM (inactive) each time. On to `CCCCOc1ccc(-c2nnc(-c3ccco3)o2)cc1`, for which the IC50 at Protein skinhead-1 is > 100 µM (inactive). In [9], the EC50 was > 260 µM (inactive). On to `Oc1ccc(Br)cc1/C=N/c1ccc2[nH]ncc2c1`, for which the IC50 in the experiment with H9c2 was 12.6 µM (active); in experiment [10] it was 32.1 µM (active). Consider `CC(C)c1ccc(N2C(=O)CC(Sc3ncccn3)C2=O)cc1` (centres undefined), for which the IC50 in [1] and in experiment [2] was > 66 µM (inactive) throughout.

On to `O=C(NC(=S)Nc1ccc(S(=O)(=O)Nc2nccs2)cc1)c1ccccc1`, for which the IC50 in [1] and in experiment [2] was > 66 µM (inactive) throughout. In the case of `Clc1ccc(OCCCc2nc(-c3ccncc3)no2)c(Cl)c1`, at Protein skinhead-1, the IC50 is 20.4 µM (active). With `CC(Oc1ccc(Br)cc1)C(=O)N1CCc2ccccc21` (centres undefined), the EC50 in experiment [3] was 8.32 µM (active). Regarding `COc1ccc(N2C(=O)CC(SCCc3nc4ccccc4[nH]3)C2=O)cc1` (centres undefined), the IC50 in [1] and in [2] was > 66 µM (inactive) in each case. In the case of `O=C1/C(=C/c2ccco2)CCc2ccccc21`, the IC50 on Protein skinhead-1 is 31.2 µM (active).

Consider `CCCC(=O)Nc1cc(C)c2c(=O)oc3ccccc3c2n1`, for which the IC50 in the experiment on H9c2 is > 79 µM (inactive). On to `Cc1onc(-c2ccccc2)c1C(=O)NC(=S)NNC(=O)c1ccncc1`, for which the IC50 in experiment [1] and in [2] was > 66 µM (inactive) each time.

For the molecule `CCCc1nc2ccccc2c(C(=O)OCc2nnc(-c3cc(OC)c(OC)c(OC)c3)o2)c1CC`, the IC50 in the experiment on H9c2 was > 79 µM (inactive). `NC(=O)c1cccc(-c2coc3c(C(=O)NCCc4ccccc4)cccc23)c1`: the IC50 with H9c2 is > 79 µM (inactive).

With `Cc1cc(O)cc(O)c1/C=N/NC(=O)c1ccc2c(c1)OCCO2`, the values for the IC50 in [1] and in experiment [2] were > 66 µM (inactive) and 30.8 µM (inactive), respectively. With `Cc1sc2nc(NCCO)nc(O)c2c1C`, in the experiment with H9c2, the IC50 was > 79 µM (inactive). On the same count and under the same terms, the value for `CC1(C)Oc2ccc3ccc(=O)oc3c2C(/C=N/c2ccccn2)=C1O` was > 79 µM (inactive); that for `O=C(N/N=C/c1ccccn1)c1ccc(NC(=O)c2cccc([N+](=O)[O-])c2)cc1` was > 79 µM (inactive). With `CN1CN(c2ccccc2)C2(CCN(CCCSc3ccccc3NC(=O)/C=C/c3ccccc3)CC2)C1=O`, the EC50 in experiment [3] is 6.22 µM (active).
